The subject of assay [1] is surface protein CD184 expression in CD34+HSPCs. In words: Preliminary screening: CD184 mean fluorescence intensity by flow cytometry. Type of assay: cell-based, human. Particulars: 16 hours treatment, three concentrations. Here is the method:
(§1) According to the counting results in Example 1, 5×10^4CD34+ cells were added to each well of a 24-well plate, and the cells were cultured with 1 ml of complete medium per well for 24 hours.
(§2) The next day, the compound was dissolved in DMSO and mixed, and then diluted with PBS to a specific concentration (see Table 3). An equal volume of 10 μl of the diluted compound per well was added to the cell culture medium, mixed well, and placed in an incubator for 16 hours.
(§3) On the third day, an antibody pre-mixed solution was prepared: a solution of PBS+0.5% BSA was pre-mixed with fluorescent antibody BV510 conjugated anti-human CD34 (Biolegend clone 581), FITC conjugated anti-human CD90 (Biolegend, clone 5E10) and APCCy7 conjugated anti-human CD45RA (Biolegend, clone HI100), 50 μl/ml of each antibody was added, and stored in the dark.
(§4) Cells were collected into centrifuge tubes, centrifuged at 400 g for 5 minutes. The supernatant was removed, added with 50 μl of antibody pre-mixed solution (containing 2.5 μl of each antibody) in each sample, resuspended and incubated at 4° C. for 20 minutes in the dark. The cells were washed with 1 ml of PBS added to each tube, centrifuged at 400 g for 5 minutes and resuspended with 50 μl of PBS+0.5% BSA solution. 2.5 μl of PE-conjugated anti-CD184 antibody (Biolegend, clone 12G5) was added to each sample, incubated at 37° C. for 30 minutes, washed, and stained with 7AAD to identify cell viability. Flow cytometry (Beckman Coulter CytoFLEX) was used to detect cell surface fluorescence, and the mean fluorescence intensity (MFI) and positive ratio of CD184 expression in HSPCs and LT-HSCs were analyzed, respectively. Among them, HSPCs are CD34+ cells, and LT-HSCs are CD34+CD90+CD45RA− cells.
(1) Preliminary screening of compounds: 139 compounds were used for preliminary screening, among which 89 compounds were screened in rounds 1-5, and 50 compounds were screened in rounds 6-9. During the in vitro culture of CD34+HSPCs, they were treated for 16 hours by adding three concentrations of compounds to the complete medium. Then the mean fluorescence intensity of surface protein CD184 expression was detected by flow cytometry. 1.
For orientation: A flow cytometer gives signals particle by particle.

Assay [2] has the same test system. Nature of the assay: Secondary screening: CD184 mean fluorescence intensity, ratio to control group. The format is cell-based, human. The following applies: high concentration, 16 hours treatment, FIG. 2. Here is the method:
as §1, §2, §3, §4
(2) Secondary screening of compounds: the 13 compounds obtained from the preliminary screening were further verified using three concentrations of high, medium and low, with three replicates for each concentration. After 16 hours of treatment with the above-mentioned compounds, the average fluorescence intensity of surface protein CD184 expression was detected by flow cytometry. 2. Wherein, the data in the figure are the ratio of the mean CD184 fluorescence intensity of each group to the control group (Mock). (M344 is the positive control group; Mock is the negative control group untreated during culture.)

In assay [3] the test system is NPG (NOD-scid Il2rg−/−) immunodeficient mice. In words: Transplantation of treated human CD34+HSPCs into irradiated NPG mice. The following applies: 17 weeks after transplantation; for differentiation of treated HSPCs in bone marrow, spleen and peripheral blood: FIG. 5B to 5D; for transplantation efficiency of cells in the bone marrow of NPG mice (hCD45+/(hCD45+ + mCD45+)×100%): HSPCs treated ex vivo, Mock group 64.7%. The format is in vivo, mouse. The source says:
The transplantation efficiency of hematopoietic stem cells refers to the ability of hematopoietic stem cells from human donor to effectively migrate to the recipient's bone marrow after intravenous injection into the recipient, maintain growth in the bone marrow microenvironment, and play a role in repopulating of the hematopoietic system. To verify the transplantation efficiency of hematopoietic stem cells in the experiment, human hematopoietic stem cells are transplanted into an immune-deficient mouse model, the blood and immune organs of the recipient mice are detected by flow cytometry, and the content of human donor cells (hCD45 positive cell ratio) is analyzed.
Human CD34+HSPCs treated with Colchicine, Vinblastine sulfate or Lexibulin for a short time, or those in the control group were transplanted into NPG (NOD-scid Il2rg−/−) immunodeficient mice irradiated with 1.0 Gy, 8 mice in each group. 17 weeks after transplantation, cell transplantation efficiency in mouse bone marrow, and distribution proportion of human T cells labeled with human CD3, CD4 and CD8 antibodies, myeloid cells labeled with human CD33 antibody, B cells labeled with CD19 antibody, NK cells labeled with human CD56 antibody, and hematopoietic stem and progenitor cells labeled with human CD34 antibody in bone marrow, peripheral blood, and spleen were detected. The results are shown in FIG. 5A to FIG. 5D, where the transplantation efficiency=hCD45^+proportion/(hCD45^+proportion+mCD45^+proportion)×100%

The structures appear in SMILES notation. Structures can show the parent of a compound that is named as a salt.

`COC[C@H]1Cn2cc(-c3nc(Nc4ccnn4C)ncc3C)nc2C(=O)N1Cc1ccc(F)c(F)c1` [AZD0364]: the “expression of CD184 in CD34+HSPCs (mean fluorescence intensity)” value (“expression of CD184 in CD34+HSPCs” for short) in assay [1] is “can enhance the expression of CD184”.

Take `Cc1c[nH]c(-c2cnc(NCCNc3ccc(C#N)cn3)nc2-c2ccc(Cl)cc2Cl)n1` [CHIR99021]: the “expression of CD184 in CD34+HSPCs” value in assay [1] is reported as “can enhance the expression of CD184”.

Turning to `COc1cc2c(c(OC)c1OC)-c1ccc(OC)c(=O)cc1[C@@H](NC(C)=O)CC2` [Colchicine], the “expression of CD184 in CD34+HSPCs” value in assay [1] was “can enhance the expression of CD184”. Besides, in assay [2], the “expression of CD184 relative to negative control (Mock)” value is given as 2.6 times and the “expression of CD184 relative to positive control M344” value is “comparable effects to M344”. Moreover, in assay [3], the “differentiation of treated HSPCs in bone marrow, spleen and peripheral blood” value (shortened to “differentiation of treated HSPCs”) was “can differentiate into T cells, myeloid cells, B cells and NK cells”; the “transplantation efficiency of cells in the bone marrow of NPG mice (hCD45+/(hCD45+ + mCD45+)×100%)” value amounted to 65.84%.

Consider `O=C(Nc1cccc2cccnc12)c1ccc(N2C(=O)[C@@H]3[C@H](C2=O)[C@@H]2C=C[C@H]3C2)cc1` [IWR-1-endo], for which the “expression of CD184 in CD34+HSPCs” value in assay [1] is “can enhance the expression of CD184”.

Turning to `N#Cc1c(NC(=O)c2cccc3ccccc23)sc2c1CCCC2` [JNK-inhibitor IX], the “expression of CD184 in CD34+HSPCs” value in assay [1] was “can enhance the expression of CD184”.

As to `c1cc(-c2cnn3cc(-c4ccc(N5CCNCC5)cc4)cnc23)c2cccnc2c1` [LND-212854], the “expression of CD184 in CD34+HSPCs” value in assay [1] is “can enhance the expression of CD184”.

Consider `CCC[C@H](Nc1nc(-c2ccc(NC(=O)NCC)c(OC)c2)ncc1C)c1cccnc1` [Lexibulin], for which the “expression of CD184 in CD34+HSPCs” value in assay [1] was “can enhance the expression of CD184”. Moreover, the “expression of CD184 relative to positive control M344” value in assay [2] is around 2 times. In assay [3], the “differentiation of treated HSPCs” value is “can differentiate into T cells, myeloid cells, B cells and NK cells”; the “transplantation efficiency of cells in the bone marrow of NPG mice (hCD45+/(hCD45+ + mCD45+)×100%)” value worked out at 82.46%.

`COC(=O)Nc1nc2ccc(C(=O)c3cccs3)cc2[nH]1` [Nocodazole]: the “expression of CD184 in CD34+HSPCs” value in assay [1] is on record as “can enhance the expression of CD184”.

With `O=C(NC[C@H](O)CO)c1ccncc1Nc1ccc(I)cc1F` [Pimasertib], in assay [1], the “expression of CD184 in CD34+HSPCs” value is “can enhance the expression of CD184”.

Turning to `O=C(Nc1ccc2[nH]nc(-c3ccncc3)c2c1)[C@@H]1CCN(CC(=O)N2CCN(c3ccc(-c4ncccn4)cc3)CC2)C1` [SCH772984], the “expression of CD184 in CD34+HSPCs” value in assay [1] is listed as “can enhance the expression of CD184”.

On to `C/C(=C\c1ccc(C(=O)O)cc1)c1ccc2c(c1)C(C)(C)CCC2(C)C` [TTNPB], for which, in assay [1], the “expression of CD184 in CD34+HSPCs” value is given as “can enhance the expression of CD184”.

Turning to `CC[C@]1(O)C[C@@H]2CN(CCc3c([nH]c4ccccc34)[C@@](C(=O)OC)(c3cc4c(cc3OC)N(C)[C@H]3[C@@](O)(C(=O)OC)[C@H](OC(C)=O)[C@]5(CC)C=CCN6CC[C@]43[C@@H]65)C2)C1` [Vinblastine sulfate], in assay [1], the “expression of CD184 in CD34+HSPCs” value is listed as “can enhance the expression of CD184”. In addition, the “expression of CD184 relative to positive control M344” value in assay [2] is recorded as around 2 times. Besides, in assay [3], the “differentiation of treated HSPCs” value was “can differentiate into T cells, myeloid cells, B cells and NK cells”; the “transplantation efficiency of cells in the bone marrow of NPG mice (hCD45+/(hCD45+ + mCD45+)×100%)” value came out at 80.73%.

Values taken from patent publication US20240026295A1, “USE OF COMPOUND FOR IMPROVING TRANSPLANTATION EFFICIENCY OF HUMAN HEMATOPOIETIC STEM CELLS” (EDIGENE (GUANGZHOU) INC., priority 2020, published 2024).
